From ChEMBL document CHEMBL4052827, “Discovery of Tetrahydroisoquinoline-Containing CXCR4 Antagonists with Improved in Vitro ADMET Properties” (J Med Chem, 2018)

Columns and labels:
[1] = Permeability of the compound at pH 5.5 at 100 uM after 4 hrs by PAMPA
[2] = Agonist activity at mAChR in human CCRF-CEM cells assessed as induction of Ca2+ flux measured for 90 secs by calcium dye-based fluorescence assay; format: cell-based
[3] = Metabolic stability in human liver microsomes assessed as parent compound remaining at 0.5 uM after 10 mins in presence of NADPH by LC-MS/MS analysis
[4] = biological target: T1, C-X-C chemokine receptor type 4 (Homo sapiens, UniProt P61073); experiment: Agonist activity at CXCR4 in human CCRF-CEM cells assessed as induction of Ca2+ flux measured for 90 secs by calcium dye-based fluorescence assay; format: functional, cell-based
[5] = Metabolic stability in mouse liver microsomes assessed as parent compound remaining at 0.5 uM after 10 mins in presence of NADPH by LC-MS/MS analysis
[6] = Antagonist activity at mAChR in human CCRF-CEM cells assessed as decrease in acetylacholine-stimulated Ca2+ flux preincubated for 25 mins followed by acetylacholine addition measured for 90 secs by calcium dye-based fluorescence assay; format: cell-based
Cytochrome P450 2D6 = Cytochrome P450 2D6 (Homo sapiens, UniProt P10635); experiment: Inhibition of recombinant human CYP2D6 expressed in microsomes of insect cells using AMMC as substrate preincubated for 30 mins followed by NADP addition after 45 mins by fluorescence analysis
[7] = biological target: T1, C-X-C chemokine receptor type 4; experiment: Antagonist activity at human CXCR4 in CCRF-CEM cells assessed as decrease in SDF-1alpha stimulated Ca2+ flux preincubated for 25 mins followed by SDF-1alpha addition measured for 90 secs by calcium dye-based fluorescence assay; format: functional, cell-based
[8] = Permeability of the compound at pH 7.4 at 100 uM after 4 hrs by PAMPA

T1 sequence (P61073 whole entry): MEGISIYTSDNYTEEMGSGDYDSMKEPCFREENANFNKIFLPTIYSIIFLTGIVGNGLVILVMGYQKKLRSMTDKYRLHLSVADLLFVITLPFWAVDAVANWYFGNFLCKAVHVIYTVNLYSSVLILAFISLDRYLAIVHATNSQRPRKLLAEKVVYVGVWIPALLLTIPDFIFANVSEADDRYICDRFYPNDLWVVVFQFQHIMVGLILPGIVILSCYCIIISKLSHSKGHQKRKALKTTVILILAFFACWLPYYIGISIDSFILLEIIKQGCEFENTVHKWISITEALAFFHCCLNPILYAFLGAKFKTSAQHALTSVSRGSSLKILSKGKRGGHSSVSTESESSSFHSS
Sequence of Cytochrome P450 2D6 (P10635 whole entry): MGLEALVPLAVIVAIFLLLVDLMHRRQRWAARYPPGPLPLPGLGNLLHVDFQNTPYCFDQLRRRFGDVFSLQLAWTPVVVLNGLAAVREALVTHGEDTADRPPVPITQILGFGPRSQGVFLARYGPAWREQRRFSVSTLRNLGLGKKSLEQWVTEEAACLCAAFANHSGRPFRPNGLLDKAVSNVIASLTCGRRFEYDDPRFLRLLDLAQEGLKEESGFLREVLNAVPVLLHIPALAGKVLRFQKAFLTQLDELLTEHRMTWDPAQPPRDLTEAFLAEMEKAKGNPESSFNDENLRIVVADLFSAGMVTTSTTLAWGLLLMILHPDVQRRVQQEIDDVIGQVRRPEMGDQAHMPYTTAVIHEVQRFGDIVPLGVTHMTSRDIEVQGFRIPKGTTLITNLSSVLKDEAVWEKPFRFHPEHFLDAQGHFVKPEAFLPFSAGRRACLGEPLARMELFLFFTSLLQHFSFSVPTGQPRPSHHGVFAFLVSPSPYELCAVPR

Structure (SMILES)	Papp at 4 h, 100 µM [1]	EC50 [2]	remaining at 10 min, 0.5 µM [3]	EC50 [4]	remaining at 10 min, 0.5 µM [5]	IC50 [6]	IC50 (Cytochrome P450 2D6)	IC50 [7]	Papp at 4 h, 100 µM [8]
c1ccc(CNCc2ccc(CN(C[C@H]3Cc4ccccc4CN3)[C@H]3CCCc4cccnc43)cc2)nc1	1.6 ×10⁻⁶ cm/s	> 30 µM	1.77%	> 30 µM	11.6%	6.94 µM	0.377 µM	–	–
FC1(F)CCC(CNCCCCN(C[C@H]2Cc3ccccc3CN2)[C@H]2CCCc3cccnc32)CC1	–	> 30 µM	–	> 30 µM	–	> 16.7 µM	–	0.168 µM	–
FC1(F)CCC(NC/C=C/CN(C[C@H]2Cc3ccccc3CN2)[C@H]2CCCc3cccnc32)CC1	0.9 ×10⁻⁶ cm/s	> 30 µM	31.7%	> 30 µM	2.12%	6.98 µM	1.45 µM	–	4.9 ×10⁻⁶ cm/s
NC/C=C/CN(C[C@H]1Cc2ccccc2CN1)[C@H]1CCCc2cccnc21	26.4 ×10⁻⁶ cm/s	> 30 µM	100%	> 30 µM	10.7%	> 16.7 µM	0.51 µM	0.129 µM	82.9 ×10⁻⁶ cm/s
O=S1(=O)CCC(CNCCCCN(C[C@H]2Cc3ccccc3CN2)[C@H]2CCCc3cccnc32)CC1	–	> 30 µM	74%	> 30 µM	39.3%	> 16.7 µM	1.17 µM	0.017 µM	–
c1ccc2c(c1)CN[C@@H](CN(CCCCNCC1CCNCC1)[C@H]1CCCc3cccnc31)C2	–	> 30 µM	84.6%	> 30 µM	37.9%	> 16.7 µM	2.53 µM	0.0365 µM	–
C(=C\CN(C[C@H]1Cc2ccccc2CN1)[C@H]1CCCc2cccnc21)/CNCc1ccccn1	1.8 ×10⁻⁶ cm/s	> 30 µM	31.2%	> 30 µM	2.98%	22 µM	0.709 µM	–	5 ×10⁻⁶ cm/s
c1ccc2c(c1)CN[C@@H](CN(CCCCNCc1ccncc1)[C@H]1CCCc3cccnc31)C2	0.65 ×10⁻⁶ cm/s	> 30 µM	1.92%	> 30 µM	6.44%	> 33.3 µM	0.145 µM	0.0227 µM	–
c1ccc(CN(CCCCN(C[C@H]2Cc3ccccc3CN2)[C@H]2CCCc3cccnc32)Cc2ccccc2)cc1	3.9 ×10⁻⁶ cm/s	> 30 µM	4.84%	> 30 µM	0.298%	> 33.3 µM	0.494 µM	> 16.7 µM	–
c1ccc2c(c1)CN[C@@H](CN(CCCCNCC1CCSCC1)[C@H]1CCCc3cccnc31)C2	–	> 30 µM	49.4%	> 30 µM	2.82%	> 16.7 µM	0.629 µM	0.0696 µM	–
FC1(F)CCC(NCCCCN(C[C@H]2Cc3ccccc3CN2)[C@H]2CCCc3cccnc32)CC1	–	> 30 µM	–	> 30 µM	–	28.2 µM	–	0.00371 µM	–
CC1(C)CCC(NCc2ccc(CN(C[C@H]3Cc4ccccc4CN3)[C@H]3CCCc4cccnc43)cc2)CC1	–	> 30 µM	14.9%	> 30 µM	23.2%	8.76 µM	0.258 µM	–	–
c1ccc(CNCCCCN(C[C@H]2Cc3ccccc3CN2)[C@H]2CCCc3cccnc32)nc1	–	> 30 µM	–	–	–	> 30 µM	–	–	–
c1ccc2c(c1)CN[C@@H](CN(Cc1ccc(CNCc3ccncc3)cc1)[C@H]1CCCc3cccnc31)C2	–	> 30 µM	0.882%	> 30 µM	4.39%	12.2 µM	0.084 µM	–	38.5 ×10⁻⁶ cm/s
c1ccc2c(c1)CN[C@@H](CN(Cc1ccc(CNCC3CCOCC3)cc1)[C@H]1CCCc3cccnc31)C2	–	> 30 µM	–	–	–	> 16.7 µM	–	–	–
c1ccc2c(c1)CN[C@@H](CN(Cc1ccc(CNC3CCOCC3)cc1)[C@H]1CCCc3cccnc31)C2	–	> 30 µM	20.4%	> 30 µM	34.8%	> 16.7 µM	0.507 µM	–	9.2 ×10⁻⁶ cm/s

Results, then the compound that gave them:

Papp at 4 h, 100 µM [1]	EC50 [2]	remaining at 10 min, 0.5 µM [3]	EC50 [4]	remaining at 10 min, 0.5 µM [5]	IC50 [6]	IC50 (Cytochrome P450 2D6)	IC50 [7]	Papp at 4 h, 100 µM [8]	Structure (SMILES)
–	> 30 µM	10.8%	> 30 µM	30.2%	> 16.7 µM	0.577 µM	–	0.5 ×10⁻⁶ cm/s	FC1(F)CCC(NCc2ccc(CN(C[C@H]3Cc4ccccc4CN3)[C@H]3CCCc4cccnc43)cc2)CC1
2.1 ×10⁻⁶ cm/s	> 30 µM	50%	> 30 µM	41.8%	> 16.7 µM	0.354 µM	0.158 µM	0.9 ×10⁻⁶ cm/s	c1ccc2c(c1)CN[C@@H](CN(CCCCNCC1CCCCC1)[C@H]1CCCc3cccnc31)C2
–	> 30 µM	1.84%	> 30 µM	0.953%	35.1 µM	0.453 µM	–	24.4 ×10⁻⁶ cm/s	C(=C\CN(C[C@H]1Cc2ccccc2CN1)[C@H]1CCCc2cccnc21)/CNCc1cccnc1
0.6 ×10⁻⁶ cm/s	> 30 µM	57.6%	> 30 µM	48.5%	> 33.3 µM	2.72 µM	0.0529 µM	–	c1ccc2c(c1)CN[C@@H](CN(CCCCNCC1CCOCC1)[C@H]1CCCc3cccnc31)C2
–	> 30 µM	30.1%	> 30 µM	50%	19.9 µM	0.09 µM	0.0776 µM	0.3 ×10⁻⁶ cm/s	CC1(C)CCC(NCCCCN(C[C@H]2Cc3ccccc3CN2)[C@H]2CCCc3cccnc32)CC1
18.4 ×10⁻⁶ cm/s	> 30 µM	50.5%	> 30 µM	1.29%	1.2 µM	0.318 µM	0.0508 µM	21.4 ×10⁻⁶ cm/s	NCc1ccccc1CN(C[C@H]1Cc2ccccc2CN1)[C@H]1CCCc2cccnc21
6.2 ×10⁻⁶ cm/s	> 30 µM	46.1%	> 30 µM	60.3%	13 µM	1.75 µM	0.0438 µM	–	CC(C)(CCN(C[C@H]1Cc2ccccc2CN1)[C@H]1CCCc2cccnc21)CNCC1CCOCC1
–	> 30 µM	97.3%	> 30 µM	89.2%	25.7 µM	0.032 µM	–	–	NCc1cccc(CN(C[C@H]2Cc3ccccc3CN2)[C@H]2CCCc3cccnc32)c1
3.9 ×10⁻⁶ cm/s	> 30 µM	100%	> 30 µM	4.36%	0.605 µM	0.333 µM	0.00926 µM	56.9 ×10⁻⁶ cm/s	NC/C=C\CN(C[C@H]1Cc2ccccc2CN1)[C@H]1CCCc2cccnc21
1.45 ×10⁻⁶ cm/s	> 30 µM	46.1%	> 30 µM	43.8%	> 33.3 µM	0.524 µM	0.0752 µM	–	c1ccc2c(c1)CN[C@@H](CN(CCCCNC1CCCCC1)[C@H]1CCCc3cccnc31)C2
–	> 30 µM	53%	> 30 µM	55.8%	> 33.3 µM	0.657 µM	0.0294 µM	–	c1ccc2c(c1)CN[C@@H](CN(CCCCNC1CCOCC1)[C@H]1CCCc3cccnc31)C2
–	> 30 µM	–	–	–	> 33.3 µM	–	–	–	NCc1ccc(CN(C[C@H]2Cc3ccccc3CN2)[C@H]2CCCc3cccnc32)cc1
–	> 30 µM	11.7%	> 30 µM	17.6%	> 33.3 µM	0.853 µM	0.0455 µM	–	O=S1(=O)CCC(NCCCCN(C[C@H]2Cc3ccccc3CN2)[C@H]2CCCc3cccnc32)CC1
–	> 30 µM	–	–	–	> 16.7 µM	–	–	–	C(=C\CN(C[C@H]1Cc2ccccc2CN1)[C@H]1CCCc2cccnc21)/CNCc1ccncc1
1.9 ×10⁻⁶ cm/s	> 30 µM	100%	> 30 µM	38%	> 33.3 µM	2.61 µM	0.0634 µM	–	c1ccc2c(c1)CN[C@@H](CN(CCCCNC1CCNCC1)[C@H]1CCCc3cccnc31)C2
–	> 30 µM	–	–	–	21.4 µM	–	–	–	c1cncc(CNCc2ccc(CN(C[C@H]3Cc4ccccc4CN3)[C@H]3CCCc4cccnc43)cc2)c1
–	> 30 µM	71.7%	> 30 µM	31.2%	3.43 µM	0.141 µM	0.0201 µM	–	c1ccc(CNCCCCN(C[C@H]2Cc3ccccc3CN2)[C@H]2CCCc3cccnc32)cc1
–	> 30 µM	21.4%	> 30 µM	10.2%	19.9 µM	0.217 µM	0.0153 µM	–	c1cncc(CNCCCCN(C[C@H]2Cc3ccccc3CN2)[C@H]2CCCc3cccnc32)c1
